Data on 29 compounds can be found in patent publication US9890149B2 (NuBridge BioSciences, priority 2015, dated 2018).

Structures can show the parent of a compound that is named as a salt.

The target of this assay is T1, ΔF508 mutant CFTR (Homo sapiens, UniProt P13569, DEL508-508).
T1 construct: expressed in transfected cells; host or cells: Fischer rat thyroid (FRT) cells
T1 sequence (P13569 with tags, fused parts or gaps DEL508-508): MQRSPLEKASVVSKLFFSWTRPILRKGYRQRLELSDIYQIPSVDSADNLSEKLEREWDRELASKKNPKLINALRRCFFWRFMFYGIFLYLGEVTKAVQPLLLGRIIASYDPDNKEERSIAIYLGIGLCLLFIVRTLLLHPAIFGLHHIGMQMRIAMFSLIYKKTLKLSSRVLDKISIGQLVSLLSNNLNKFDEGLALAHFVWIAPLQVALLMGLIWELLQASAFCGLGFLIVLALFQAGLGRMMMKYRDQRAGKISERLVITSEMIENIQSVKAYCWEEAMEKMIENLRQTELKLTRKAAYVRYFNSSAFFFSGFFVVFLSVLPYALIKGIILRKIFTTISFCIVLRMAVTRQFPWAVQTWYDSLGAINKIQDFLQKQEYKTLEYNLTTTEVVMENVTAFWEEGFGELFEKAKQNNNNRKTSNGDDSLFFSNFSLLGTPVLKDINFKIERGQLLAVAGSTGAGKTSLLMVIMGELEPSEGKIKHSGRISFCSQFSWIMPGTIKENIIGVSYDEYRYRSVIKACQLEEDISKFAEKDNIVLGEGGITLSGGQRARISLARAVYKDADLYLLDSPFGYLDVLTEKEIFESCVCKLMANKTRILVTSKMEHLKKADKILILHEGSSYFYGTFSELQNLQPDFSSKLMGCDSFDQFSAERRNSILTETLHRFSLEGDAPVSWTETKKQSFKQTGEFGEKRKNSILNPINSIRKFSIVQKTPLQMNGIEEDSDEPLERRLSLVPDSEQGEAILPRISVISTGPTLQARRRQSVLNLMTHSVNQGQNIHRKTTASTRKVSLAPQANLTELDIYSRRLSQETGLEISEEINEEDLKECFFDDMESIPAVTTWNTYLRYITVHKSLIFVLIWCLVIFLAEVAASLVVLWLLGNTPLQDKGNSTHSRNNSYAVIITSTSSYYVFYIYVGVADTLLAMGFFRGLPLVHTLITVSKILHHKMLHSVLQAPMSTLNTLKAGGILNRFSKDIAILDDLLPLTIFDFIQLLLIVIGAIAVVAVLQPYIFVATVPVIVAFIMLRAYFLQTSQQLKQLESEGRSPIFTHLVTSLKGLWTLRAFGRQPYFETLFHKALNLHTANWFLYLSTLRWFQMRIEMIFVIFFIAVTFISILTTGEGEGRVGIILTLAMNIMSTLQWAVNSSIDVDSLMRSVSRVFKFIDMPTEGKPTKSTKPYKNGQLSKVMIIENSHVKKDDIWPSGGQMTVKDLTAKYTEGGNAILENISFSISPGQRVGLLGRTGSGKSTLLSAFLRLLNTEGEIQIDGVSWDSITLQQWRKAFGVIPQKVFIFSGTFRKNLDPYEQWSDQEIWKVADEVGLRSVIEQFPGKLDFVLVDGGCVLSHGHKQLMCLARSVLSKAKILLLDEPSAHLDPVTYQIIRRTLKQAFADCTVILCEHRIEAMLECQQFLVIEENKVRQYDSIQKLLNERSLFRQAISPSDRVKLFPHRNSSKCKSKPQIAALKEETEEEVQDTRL
The experiment in a line: Fluorescence Assay (halide-sensitive YFP, iodide influx) for ΔF508 mutant CFTR activity. Conditions: FRT cells expressing ΔF508-CFTR and YFP-H148Q/I152L, incubated 27° C. 20-24 h; forskolin (20 μM) and test compounds (20 μM) for 20 min; rate of fluorescence quenching by I−, normalized to forskolin alone. Format: cell-based. From the text:
The ΔF508 mutant CFTR activities of the CFTR modulators are detected using the Fluorescence Assay developed by Pedemonte (Pedemonte N., et al., Antihypertensive 1,4-dihydropyridines as correctors of the cystic fibrosis transmembrane conductance regulator channel gating defect caused by cystic fibrosis mutations, Mol. Pharmacol., 2005, 68, 1736-1746).
Fischer rat thyroid (FRT) cells, stably transfected with ΔF508 were retransfected with the YFP-H148Q/I152L fluorescent protein. The cells were plated (100,000 cells/well) on black 96-well microplates with clear plastic bottom (Corning Life Sciences, Acton, Mass.).
The 96-well microplates containing FRT cells expressing F508-CFTR and the halide-sensitive YFP were incubated at 27° C. for 20 to 24 h to allow rescue of the mutant protein to the plasma membrane. After incubation, cells were washed with PBS (containing 137 mM NaCl, 2.7 mM KCl, 8.1 mM Na2HPO4, 1.5 mM KH2PO4, 1 mM CaCl2, and 0.5 mM MgCl2) and stimulated for 20 min with forskolin (20 μM) and test compounds (20 μM) in a final volume of […] Microplates were then transferred to a microplate reader for CFTR activity determination.
As for `Cl.Nc1cc(F)c(-c2c(F)cccc2F)nc1C(=O)Nc1cnsc1OCC1CNC1` [Example 32, 3-amino-N-(5-(azetidin-3-ylmethoxy)isothiazol-4-yl)-6-(2,6-difluorophenyl)-5-fluoropicolinamide hydrochloride], the “CFTR Activity” value amounted to 0.3. `COc1cccc(F)c1-c1nc(C(=O)Nc2cnsc2OC2CCCNCC2)ccc1F.Cl` (centres unmarked) [Example 41, N-(5-(azepan-4-yloxy)isothiazol-4-yl)-5-fluoro-6-(2-fluoro-6-methoxyphenyl)picolinamide hydrochloride]: the “CFTR Activity” value turned out to be 1.6. In the case of `Cl.Nc1cc(C(F)(F)F)c(-c2c(F)cccc2F)nc1C(=O)Nc1cnsc1OCC1CNC1` [Example 50, 3-amino-N-(5-(azetidin-3-ylmethoxy)isothiazol-4-yl)-6-(2,6-difluorophenyl)-5-(trifluoromethyl)picolinamide hydrochloride], the “CFTR Activity” value is reported as 0.1.

Take `Cl.O=C(Nc1cnsc1OC1CCCNCC1)c1ccc(C(F)(F)F)c(-c2c(F)cccc2F)n1` (centres unmarked) [Example 42, N-(5-(azepan-4-yloxy)isothiazol-4-yl)-6-(2,6-difluorophenyl)-5-(trifluoromethyl)picolinamide hydrochloride]: the “CFTR Activity” value was 0.4. For the compound `Cl.NCC(CCl)COc1sncc1NC(=O)c1nc(-c2c(F)cccc2F)c(C(F)(F)F)cc1N` (centres unmarked) [Example 55, 3-amino-N-(5-(3-amino-2-(chloromethyl)propoxy)isothiazol-4-yl)-6-(2,6-difluorophenyl)-5-(trifluoromethyl)picolinamide hydrochloride], the “CFTR Activity” value was 0.5. In the case of `CC(C)(O)CCCOc1sncc1NC(=O)c1ccc(F)c(-c2c(F)cccc2F)n1` [Example 20, 6-(2,6-difluorophenyl)-5-fluoro-N-(5-((4-hydroxy-4-methylpentyl)oxy)isothiazol-4-yl)picolinamide], the “CFTR Activity” value is on record as 0.1. The value for `O=C(Nc1cnsc1OCCC(O)CO)c1ccc(F)c(-c2c(F)cccc2F)n1` (centres unmarked) [Example 21, 6-(2,6-difluorophenyl)-N-(5-(3,4-dihydroxybutoxy)isothiazol-4-yl)-5-fluoropicolinamide] was 0.5; that for `Cl.O=C(Nc1cnsc1OCC1CCNCC1)c1ccc(F)c(-c2c(F)cccc2F)n1` [Example 1, 6-(2,6-difluorophenyl)-5-fluoro-N-(5-(piperidin-4-ylmethoxy)isothiazol-4-yl)picolinamide hydrochloride] was 0.9; that for `Cl.Nc1cc(C(F)(F)F)c(-c2c(F)cccc2F)nc1C(=O)Nc1cnsc1OCC1CCNCC1` [Example 49, 3-amino-6-(2,6-difluorophenyl)-N-(5-(piperidin-4-ylmethoxy)isothiazol-4-yl)-5-(trifluoromethyl)picolinamide hydrochloride] was 0.2. As to `Cl.Nc1cc(F)c(-c2ccccc2)nc1C(=O)Nc1cnsc1OC1CCNC1` (centres unmarked) [Example 38, 3-amino-5-fluoro-6-phenyl-N-(5-(pyrrolidin-3-yloxy)isothiazol-4-yl)picolinamide hydrochloride], the “CFTR Activity” value came to 1.3. Consider `Cl.O=C(Nc1cnsc1OCC1CCNCC1)c1ccc(C(F)(F)F)c(-c2c(F)cccc2F)n1` [Example 43, 6-(2,6-difluorophenyl)-N-(5-(piperidin-4-ylmethoxy)isothiazol-4-yl)-5-(trifluoromethyl)picolinamide hydrochloride], for which the “CFTR Activity” value came out at 0.3. Take `Cl.O=C(Nc1cnsc1OCC1CCNC1)c1ccc(F)c(-c2c(F)cccc2F)n1` (centres unmarked) [Example 8, 6-(2,6-difluorophenyl)-5-fluoro-N-(5-(pyrrolidin-3-ylmethoxy)isothiazol-4-yl)picolinamide hydrochloride]: the “CFTR Activity” value came out at 0.7. On to `NCC(CCl)Oc1sncc1NC(=O)c1ccc(F)c(-c2c(F)cccc2F)n1` (centres unmarked) [Example 29, N-(5-((1-amino-3-chloropropan-2-yl)oxy)isothiazol-4-yl)-6-(2,6-difluorophenyl)-5-fluoropicolinamide hydrochloride], for which the “CFTR Activity” value worked out at 1.4. In the case of `Cl.O=C(Nc1cnsc1OCC1CNC1)c1ccc(F)c(-c2c(F)cccc2F)n1` [Example 2, N-(5-(azetidin-3-ylmethoxy)isothiazol-4-yl)-6-(2,6-difluorophenyl)-5-fluoropicolinamide hydrochloride], the “CFTR Activity” value came out at 0.2. As for `Cl.Nc1cc(C(F)(F)F)c(-c2c(F)cccc2F)nc1C(=O)Nc1cnsc1OC1CCCNCC1` (centres unmarked) [Example 48, 3-amino-N-(5-(azepan-4-yloxy)isothiazol-4-yl)-6-(2,6-difluorophenyl)-5-(trifluoromethyl)picolinamide hydrochloride], the “CFTR Activity” value is reported as 0.7.

Regarding `Cl.Nc1cc(F)c(-c2c(F)cccc2F)nc1C(=O)Nc1cnsc1OC1CCCC(N)C1` (centres unmarked) [Example 37, 3-amino-N-(5-((3-aminocyclohexyl)oxy)isothiazol-4-yl)-6-(2,6-difluorophenyl)-5-fluoropicolinamide hydrochloride], the “CFTR Activity” value is recorded as 2.9.

`Cl.Nc1cc(C(F)(F)F)c(-c2c(F)cccc2F)nc1C(=O)Nc1cnsc1O[C@H]1CC[C@H](N)CC1` [Example 52, 3-amino-N-(5-(((1r,4r)-4-aminocyclohexyl)oxy)isothiazol-4-yl)-6-(2,6-difluorophenyl)-5-(trifluoromethyl)picolinamide hydrochloride]: the “CFTR Activity” value amounted to 4.6. As for `Cl.NC1CCCC(Oc2sncc2NC(=O)c2ccc(C(F)(F)F)c(-c3c(F)cccc3F)n2)C1` (centres unmarked) [Example 60, N-(5-((3-aminocyclohexyl)oxy)isothiazol-4-yl)-6-(2,6-difluorophenyl)-5-(trifluoromethyl)picolinamide hydrochloride], the “CFTR Activity” value amounted to 0.1. Turning to `Cl.NCC(CCl)COc1sncc1NC(=O)c1nc(-c2c(F)cccc2F)c(F)cc1N` (centres unmarked) [Example 34, 3-amino-N-(5-(3-amino-2-(chloromethyl)propoxy)isothiazol-4-yl)-6-(2,6-difluorophenyl)-5-fluoropicolinamide hydrochloride], the “CFTR Activity” value came out at 1.6.

As to `Cl.Nc1cc(F)c(-c2c(F)cccc2F)nc1C(=O)Nc1cnsc1OCC1CCNC1` (centres unmarked) [Example 28, 3-amino-6-(2,6-difluorophenyl)-5-fluoro-N-(5-(pyrrolidin-3-ylmethoxy)isothiazol-4-yl)picolinamide hydrochloride], the “CFTR Activity” value is 1.7.

On to `CN(C)CCCOc1sncc1NC(=O)c1ccc(F)c(-c2c(F)cccc2F)n1.Cl` [Example 14, 6-(2,6-difluorophenyl)-N-(5-(3-(dimethylamino)propoxy)isothiazol-4-yl)-5-fluoropicolinamide hydrochloride], for which the “CFTR Activity” value amounted to 0.3. On to `Cl.NCCCCOc1sncc1NC(=O)c1nc(-c2c(F)cccc2F)c(F)cc1N` [Example 36, 3-amino-N-(5-(4-aminobutoxy)isothiazol-4-yl)-6-(2,6-difluorophenyl)-5-fluoropicolinamide hydrochloride], for which the “CFTR Activity” value amounted to 1.8. Regarding `Cl.NCC(CO)COc1sncc1NC(=O)c1nc(-c2c(F)cccc2F)c(C(F)(F)F)cc1N` (centres unmarked) [Example 59, 3-amino-N-(5-(3-amino-2-(hydroxymethyl)propoxy)isothiazol-4-yl)-6-(2,6-difluorophenyl)-5-(trifluoromethyl)picolinamide hydrochloride], the “CFTR Activity” value was 2.3. The value for `Cl.Nc1cc(F)c(-c2c(F)cccc2F)nc1C(=O)Nc1cnsc1OC1CCNCC1` [Example 25, 3-amino-6-(2,6-difluorophenyl)-5-fluoro-N-(5-(piperidin-4-yloxy)isothiazol-4-yl)picolinamide hydrochloride] was 2.5; that for `CNCCCCOc1sncc1NC(=O)c1ccc(F)c(-c2c(F)cccc2F)n1.Cl` [Example 16, 6-(2,6-difluorophenyl)-5-fluoro-N-(5-(4-(methylamino)butoxy)isothiazol-4-yl)picolinamide hydrochloride] was 0.5; that for `Cl.Nc1cc(F)c(-c2c(F)cccc2F)nc1C(=O)Nc1cnsc1OC1CCCNCC1` (centres unmarked) [Example 26, 3-amino-N-(5-(azepan-4-yloxy)isothiazol-4-yl)-6-(2,6-difluorophenyl)-5-fluoropicolinamide hydrochloride] was 3.1. For `Cl.Nc1cc(F)c(-c2c(F)cccc2F)nc1C(=O)Nc1cnsc1OCC1CCNCC1` [Example 23, 3-amino-6-(2,6-difluorophenyl)-5-fluoro-N-(5-(piperidin-4-ylmethoxy)isothiazol-4-yl)picolinamide hydrochloride], the “CFTR Activity” value was 2.2.

On to `Cl.N[C@H]1CC[C@H](Oc2sncc2NC(=O)c2ccc(C(F)(F)F)c(-c3c(F)cccc3F)n2)CC1` [Example 46, N-(5-(((1r,4r)-4-aminocyclohexyl)oxy)isothiazol-4-yl)-6-(2,6-difluorophenyl)-5-(trifluoromethyl)picolinamide hydrochloride], for which the “CFTR Activity” value turned out to be 1.

Consider `O=C(Nc1cnsc1OCCCO)c1ccc(F)c(-c2c(F)cccc2F)n1` [Example 17, 6-(2,6-difluorophenyl)-5-fluoro-N-(5-(3-hydroxypropoxy)isothiazol-4-yl)picolinamide], for which the “CFTR Activity” value worked out at 0.1.
